In patent US20240238314A1, “TREATMENT OF ESSENTIAL TREMOR” (Sage Therapeutics, Inc., priority 2021, published 2024):
“Also recorded” adds a separate entry of the source.

How the values were obtained:
[1] = test system: individuals with essential tremor; experiment: Phase 2 study, Compound 1 60 mg once daily for 28 days: safety and tolerability (TEAEs, dose reduction, discontinuation; Safety Set); format: in vivo, human
Procedure: • Incidence of treatment-emergent adverse events (TEAEs). • Safety and tolerability of Compound 1 as assessed by change from baseline in vital signs, electrocardiograms (ECGs), clinical laboratory parameters, and Columbia-Suicide Severity Rating Scale (C-SSRS). • Physician Withdrawal Checklist (PWC-20).
(§1) Participants were randomized to receive Compound 1 60 mg or placebo once daily in the morning on a 1:1 basis. If participants reported a TEAE considered by investigator to be related to Compound 1 and not tolerable, investigator might reduce the dose of Compound 1 from 60 mg in 15 mg decrements (i.e., 60 mg, to 45 mg, to 30 mg), as medically appropriate. If intolerable TEAEs persist at the 30 mg dose, Compound 1 was permanently stopped.
Participants were monitored for safety during the Treatment and Follow-up Periods (through Study Day 45 [±3 days]) including monitoring for AEs/serious AEs (SAEs), routine clinical laboratory assessments, physical examination, vital signs, and ECG, etc.
Safety Set: defined as all participants who received at least one dose of Compound 1. The Safety Set was used to provide descriptive summaries of the safety data.
The safety and tolerability of Compound 1 were evaluated by adverse events, concomitant medication usage, changes from baseline in physical examination, vital signs, clinical laboratory evaluations, and 12-lead ECG. Suicidality was monitored by the C-SSRS. Safety data were listed by subject and by study drug and summarized descriptively. All safety summaries were performed on the Safety Set.
The incidence of adverse events were summarized by system organ class, and preferred term for subjects in Safety Set.

[2] = test system: individuals with essential tremor; experiment: Phase 2 study, Compound 1 60 mg once daily for 28 days: TETRAS performance subscale total score; format: in vivo, human; conditions: Full Analysis Set
Procedure: As used herein, “The Essential Tremor Rating Assessment Scale (TETRAS) performance subscale total score” refers to an assessment scale for essential tremor developed by The Tremor Research Group (Elble, R. J., J. Neurol. Neuromedicine 1(4):34-38 (2016); Elble, R. J. et. al., Mov. Disord. 27(12); 1567-1569 (2012)). The TETRAS […] performance subscale includes 9 metrics or characteristics, wherein each metric or characteristic is scored 0 to 4. Some metrics or characteristics are performed on both right and left limbs and/or include multiple subitems. Scores for each of the 9 characteristics are then added to give a total score of no greater than 64. The 9 metrics or characteristics include:
Participants were 18 to 80 years of age, inclusive, diagnosed of ET of at least 3 years duration with scores of at least 1.5 for each of the six items that comprised the combined total upper limb TETRAS (total performance subscale part 4) with the total score for the dominant upper limb (the sum of the 3 items for either the right or left upper limb, whichever is dominant) being at least 5.5, at both Screening and predose on Day 1.
as §1
This study included a Screening Period of up to 28 days, a 29-day treatment period consisting of 28 days of dosing with the end of treatment visit intended to be on Day 29 at trough, and a 14-day follow-up period relative to final dose. Study patients were not taking other medications for essential tremor during the 28-day treatment period.

[3] = Safety Set, N = 34, listed as Cmpd 1

`COC[C@@]1(O)CC[C@H]2[C@@H](CC[C@@H]3[C@@H]2CC[C@]2(C)[C@@H](C(=O)Cn4nnc(C)n4)CC[C@@H]32)C1` [Compound 1] was tested, and the “Participants with early discontinuation of the study at 60 mg, number” value [1] was 5, the “Down-titration of dose, percent of patients” value ([1]; 60 mg down-titrated to 45 mg or 30 mg) was 62% and the “Early treatment discontinuation, reason Physician Decision, number” value ([1]; N = 34) was 1. For the same compound, the “Early treatment discontinuation, reason Physician Decision, percent” value ([1]; N = 34) was 2.9%, the “Early treatment discontinuation, reason Subject was lost to follow up, number” value ([1]; N = 34) was 0 and the “Early treatment discontinuation, reason Withdrawal by Subject, number” value ([1]; N = 34) was 3. For the same compound, the “Early treatment discontinuation, reason Withdrawal by Subject, percent” value ([1]; N = 34) was 8.8%, the “TEAE Asthenia, number of participants” value ([1]; Safety Set, N = 34) was 1 and the “TEAE Asthenia, percent of participants” value ([1]; Safety Set, N = 34) was “(2.9%)”. For the same compound, the “TEAE Balance disorder, number of participants” value ([1]; Safety Set, N = 34) was 5, the “TEAE Balance disorder, percent of participants” value ([1]; Safety Set, N = 34) was 15% and the “TEAE Coordination abnormal, number of participants” value ([1]; Safety Set, N = 34) was 1. For the same compound, the “TEAE Coordination abnormal, percent of participants” value ([1]; Safety Set, N = 34) was “(2.9%)”, the “TEAE Diarrhoea, number of participants” value ([1]; Safety Set, N = 34) was 2 and the “TEAE Diarrhoea, percent of participants” value ([1]; Safety Set, N = 34) was “(5.9%)”. For the same compound, the “TEAE Diplopia, number of participants” value ([1]; Safety Set, N = 34) was 4, the “TEAE Diplopia, percent of participants” value ([1]; Safety Set, N = 34) was 12% and the “TEAE Disturbance in attention, number of participants” value ([1]; Safety Set, N = 34) was 3. For the same compound, the “TEAE Disturbance in attention, percent of participants” value ([1]; Safety Set, N = 34) was “(8.8%)”, the “TEAE Dizziness, number of participants” value ([1]; Safety Set, N = 34) was 13 and the “TEAE Dizziness, percent of participants” value ([1]; Safety Set, N = 34) was 38%. The “TEAE Dysarthria, number of participants” value ([1]; Safety Set, N = 34) was 4, the “TEAE Dysarthria, percent of participants” value ([1]; Safety Set, N = 34) was 12% and the “TEAE Fatigue, number of participants” value ([1]; Safety Set, N = 34) was 5. The “TEAE Fatigue, percent of participants” value ([1]; Safety Set, N = 34) was “(14.7%)”, the “TEAE Gait disturbance, number of participants” value ([1]; Safety Set, N = 34) was 4 and the “TEAE Gait disturbance, percent of participants” value ([1]; Safety Set, N = 34) was 12%. For the same compound, the “TEAE Headache, number of participants” value ([1]; Safety Set, N = 34) was 2, the “TEAE Headache, percent of participants” value ([1]; Safety Set, N = 34) was “(5.9%)” and the “TEAE Insomnia, number of participants” value ([1]; Safety Set, N = 34) was 1. The “TEAE Insomnia, percent of participants” value ([1]; Safety Set, N = 34) was “(2.9%)”, the “TEAE Irritability, number of participants” value ([1]; Safety Set, N = 34) was 0 and the “TEAE Lethargy, number of participants” value ([1]; Safety Set, N = 34) was 2. The “TEAE Lethargy, percent of participants” value ([1]; Safety Set, N = 34) was “(5.9%)”, the “TEAE Mental status changes, number of participants” value ([1]; Safety Set, N = 34) was 2 and the “TEAE Mental status changes, percent of participants” value ([1]; Safety Set, N = 34) was “(5.9%)”. The “TEAE Myalgia, number of participants” value ([1]; Safety Set, N = 34) was 0, the “TEAE Myoclonus, number of participants” value ([1]; Safety Set, N = 34) was 3 and the “TEAE Myoclonus, percent of participants” value ([1]; Safety Set, N = 34) was “(8.8%)”. The “TEAE Paraesthesia, number of participants” value ([1]; Safety Set, N = 34) was 2, the “TEAE Paraesthesia, percent of participants” value ([1]; Safety Set, N = 34) was “(5.9%)” and the “TEAE Somnolence, number of participants” value ([1]; Safety Set, N = 34) was 23. For the same compound, the “TEAE Speech disorder, number of participants” value ([1]; Safety Set, N = 34) was 2, the “TEAE Speech disorder, percent of participants” value ([1]; Safety Set, N = 34) was “(5.9%)” and the “TEAE Urinary tract infection, number of participants” value ([1]; Safety Set, N = 34) was 1. For the same compound, the “TEAE Urinary tract infection, percent of participants” value ([1]; Safety Set, N = 34) was “(2.9%)”, the “TEAE Balance disorder, percent of participants” value [1, 3] was “(14.7%)” and the “TEAE Diplopia, percent of participants” value [1, 3] was “(11.8%)”. The “TEAE Dizziness, percent of participants” value [1, 3] was “(38.2%)”, the “TEAE Dysarthria, percent of participants” value [1, 3] was “(11.8%)” and the “TEAE Gait disturbance, percent of participants” value [1, 3] was “(11.8%)”. The “TEAE Somnolence, percent of participants” value [1, 3] was “(67.6%)”, the “Discontinuations noted, of patients receiving Compound 1” value ([1]; in vivo) was 3800 and the “Participants with early discontinuation of the study at 60 mg, percent” value ([1]; in vivo) was 14.7%. The “Severe adverse events (SAEs) reported by one participant, in words” value ([1]; individual participants of the Compound 1 group) was “mental status changes; also recorded: dehydration; also recorded: headache; also recorded: transient ischaemic attack”, the “Early treatment discontinuation due to adverse event (TEAEs leading to treatment discontinuation), number” value ([1]; of 34) was 9 and the “Early treatment discontinuation due to adverse event (TEAEs leading to treatment discontinuation), percent” value ([1]; of 34) was 26.5%. For the same compound, the “Participants reporting TEAEs leading to study discontinuation, number” value ([1]; of 34) was 4, the “Participants reporting TEAEs leading to study discontinuation, percent” value ([1]; of 34) was 11.8% and the “Participants reporting TEAEs resulting in treatment dose reduction, number” value ([1]; of 34) was 21. For the same compound, the “Participants reporting TEAEs resulting in treatment dose reduction, percent” value ([1]; of 34) was 61.8%, the “Participants reporting severe TEAEs, number” value ([1]; of 34) was 11 and the “Participants reporting severe TEAEs, percent” value ([1]; of 34) was 32.4%. For the same compound, the “Participants reporting treatment-emergent adverse events (TEAEs), number” value ([1]; of 34) was 33, the “Participants reporting treatment-emergent adverse events (TEAEs), percent” value ([1]; of 34) was 97.1% and the “Participants who completed the study at 60 mg dose, number” value ([1]; of 34) was 8. The “Participants who completed the study at 60 mg dose, percent” value ([1]; of 34) was 23.5%, the “Participants who had dose reduced to 30 mg from 60 mg directly, number” value ([1]; of 34) was 2 and the “Participants who had dose reduced to 30 mg from 60 mg directly, percent” value ([1]; of 34) was 5.9%. For the same compound, the “Participants who had dose reduced to 45 mg, number” value ([1]; of 34) was 19, the “Participants who had dose reduced to 45 mg, percent” value ([1]; of 34) was 55.9% and the “LSMean difference vs placebo in change from baseline in TETRAS performance subscale total score” value (“LSMean difference vs placebo in change” below) ([2]; Day 8) was −1.26. The “Model-based LSMean (SE) change from baseline in TETRAS performance subscale total score” value (from here on “Model-based LSMean (SE) change”) ([2]; Day 8) was −3.55 (0.780), the “LSMean difference vs placebo in change” value ([2]; Day 15, 5 hr postdose) was −1.52 and the “Model-based LSMean (SE) change” value ([2]; Day 15, 5 hr postdose) was −5.90 (1.015). The “LSMean difference vs placebo in change” value ([2]; Day 15, 8 hr postdose) was 0.01, the “Model-based LSMean (SE) change” value ([2]; Day 15, 8 hr postdose) was −4.61 (0.954) and the “LSMean difference vs placebo in change” value ([2]; Day 15, predose) was −0.91. For the same compound, the “Model-based LSMean (SE) change” value ([2]; Day 15, predose) was −3.46 (0.878), the “LSMean difference vs placebo in change” value ([2]; Day 22) was −0.24 and the “Model-based LSMean (SE) change” value ([2]; Day 22) was −3.16 (0.914). For the same compound, the “LSMean difference vs placebo in change” value ([2]; Day 29) was −0.32 (−2.78, 2.14), the “Model-based LSMean (SE) change” value ([2]; Day 29) was −3.22 (0.922) and the “LSMean difference vs placebo in change” value ([2]; Day 29, listed as Cmpd 1) was −0.32. The “LSMean difference vs placebo in change” value ([2]; Day 42) was 2.28 and the “Model-based LSMean (SE) change” value ([2]; Day 42) was −1.59 (0.820).
